According to ChEMBL document CHEMBL2331147, “Scutellarin from Scutellaria baicalensis suppresses adipogenesis by upregulating PPARα in 3T3-L1 cells” (J Nat Prod, 2013):
The source made the active and inactive calls. The rule behind the calls is not given here.

Columns and labels:
3T3-L1 [1] = assay: Cytotoxicity against mouse 3T3L1 cells assessed as cell viability at < 100 uM after 48 hrs by MTT assay; assay type: cell-based; conditions: 3t3-l1, 48 h
3T3-L1 [2] = assay: Antiadipogenic activity in mouse 3T3L1 cells assessed as upregulation of PPARalpha mRNA expression after 8 days by RT-PCR analysis; assay type: functional, cell-based
3T3-L1 [3] = assay: Antiadipogenic activity in mouse 3T3L1 cells assessed as downregulation of PPARgamma mRNA expression after 8 days by RT-PCR analysis; assay type: functional, cell-based
3T3-L1 [4] = assay: Antiadipogenic activity in mouse 3T3L1 cells assessed as downregulation of LPL mRNA expression at 10 to 100 uM after 8 days by RT-PCR analysis; assay type: functional, cell-based
3T3-L1 [5] = assay: Antiadipogenic activity in mouse 3T3L1 cells assessed as decrease in intracellular lipid accumulation incubated for 8 days followed by compound wash out measured for 60 mins by Oil Red O staining-based phase contrast microscopic analysis; assay type: functional, cell-based
3T3-L1 [6] = assay: Effect on PPARdelta mRNA expression in mouse 3T3L1 cells at 10 to 100 uM after 8 days by RT-PCR analysis; assay type: functional, cell-based
3T3-L1 [7] = assay: Antiadipogenic activity in mouse 3T3L1 cells assessed as downregulation of C/EBPalpha mRNA expression after 8 days by RT-PCR analysis; assay type: functional, cell-based
3T3-L1 [8] = assay: Downregulation of C/EBPbeta mRNA expression in mouse 3T3L1 cells at 10 to 100 uM after 8 days by RT-PCR analysis; assay type: functional, cell-based

O=C(O)[C@H]1O[C@@H](Oc2cc3oc(-c4ccc(O)cc4)cc(=O)c3c(O)c2O)[C@H](O)[C@@H](O)[C@@H]1O [SCUTELLARIN]
Activity (3T3-L1 [1]): Non-toxic
Activity (3T3-L1 [2]): Dose-dependent effect
Activity (3T3-L1 [3]): Dose-dependent effect
Activity (3T3-L1 [4]): Active
Activity (3T3-L1 [5]): Dose-dependent effect
Activity (3T3-L1 [6]): inactive
Activity (3T3-L1 [7]): Dose-dependent effect
Activity (3T3-L1 [8]): inactive
